Legend:
γ PI3K = molecular target: T1, γ PI3K (Homo sapiens, UniProt P48736); test: PI3-Kinase Promega ADP-Glo Max assay, γ isoform; format: biochemical; settings: 40 nM kinase, 3 mM ATP, 500 uM diC8-PtdInsP
T1 construct: purchased Millipore
Protocol: (§1) PI3-Kinase Promega™ Assay
(§2) Promega ADP-Glo Max assay kit (Cat. No. V7002) was utilized to determine IC50 values for α, β, δ and γ isoforms of human Class I PI3 kinases (Millipore). Samples of kinase (20 nM α or δ, 40 nM β or γ isoform) were incubated with compound for 15 minutes at room temperature in reaction buffer (15 mM HEPES pH 7.4, 20 mM NaCl, 1 mM EGTA, 0.02% Tween 20, 10 mM MgCl2, 0.2 mg/mL bovine-γ-globulins) followed by addition of ATP/diC8-PtdInsP mixture to give final concentrations of 3 mM ATP and 500 uM diC8-PtdInsP. Reactions were incubated at room temperature for 2 hours followed by addition of 25 uL of stop solution. After a 40-minute incubation at room temperature, 50 uL of Promega detection mix was added followed by incubation for 1 hour at room temperature. Plates were then read on Envision plate reader in luminescence mode. Data was converted to % inhibition using the following equation below: […]
(§3) where S is the sample luminescence, Pos is a positive control without added PI3K, Neg is the negative control without added compound. Data was then plotted as % inhibition vs compound concentration. Data fit to 4 parameter logistic equation to determine IC50 values: […]
(§4) Certain compounds provided herein were tested in PI3-Kinase Promega Assay using procedures as described above to determine IC50 values for α, β, δ and/or γ isoforms.

α PI3K = molecular target: T2, α PI3K (Homo sapiens, UniProt P42336); test: PI3-Kinase Promega ADP-Glo Max assay, α isoform; format: biochemical; settings: 20 nM kinase, 3 mM ATP, 500 uM diC8-PtdInsP
T2 construct: purchased Millipore
Protocol: as §1, §2, §3, §4

p110 γ = molecular target: T3, p110 γ (Mus musculus, UniProt Q9JHG7); test: PI3K-γ selective cellular assay: phospho-AKT in C5a stimulated RAW264.7 macrophages; format: cell-based; settings: serum-starved RAW264.7 cells stimulated with C5a
T3 construct: endogenous in cells; host or cells: RAW264.7 macrophages
T3 sequence (Q9JHG7 whole entry): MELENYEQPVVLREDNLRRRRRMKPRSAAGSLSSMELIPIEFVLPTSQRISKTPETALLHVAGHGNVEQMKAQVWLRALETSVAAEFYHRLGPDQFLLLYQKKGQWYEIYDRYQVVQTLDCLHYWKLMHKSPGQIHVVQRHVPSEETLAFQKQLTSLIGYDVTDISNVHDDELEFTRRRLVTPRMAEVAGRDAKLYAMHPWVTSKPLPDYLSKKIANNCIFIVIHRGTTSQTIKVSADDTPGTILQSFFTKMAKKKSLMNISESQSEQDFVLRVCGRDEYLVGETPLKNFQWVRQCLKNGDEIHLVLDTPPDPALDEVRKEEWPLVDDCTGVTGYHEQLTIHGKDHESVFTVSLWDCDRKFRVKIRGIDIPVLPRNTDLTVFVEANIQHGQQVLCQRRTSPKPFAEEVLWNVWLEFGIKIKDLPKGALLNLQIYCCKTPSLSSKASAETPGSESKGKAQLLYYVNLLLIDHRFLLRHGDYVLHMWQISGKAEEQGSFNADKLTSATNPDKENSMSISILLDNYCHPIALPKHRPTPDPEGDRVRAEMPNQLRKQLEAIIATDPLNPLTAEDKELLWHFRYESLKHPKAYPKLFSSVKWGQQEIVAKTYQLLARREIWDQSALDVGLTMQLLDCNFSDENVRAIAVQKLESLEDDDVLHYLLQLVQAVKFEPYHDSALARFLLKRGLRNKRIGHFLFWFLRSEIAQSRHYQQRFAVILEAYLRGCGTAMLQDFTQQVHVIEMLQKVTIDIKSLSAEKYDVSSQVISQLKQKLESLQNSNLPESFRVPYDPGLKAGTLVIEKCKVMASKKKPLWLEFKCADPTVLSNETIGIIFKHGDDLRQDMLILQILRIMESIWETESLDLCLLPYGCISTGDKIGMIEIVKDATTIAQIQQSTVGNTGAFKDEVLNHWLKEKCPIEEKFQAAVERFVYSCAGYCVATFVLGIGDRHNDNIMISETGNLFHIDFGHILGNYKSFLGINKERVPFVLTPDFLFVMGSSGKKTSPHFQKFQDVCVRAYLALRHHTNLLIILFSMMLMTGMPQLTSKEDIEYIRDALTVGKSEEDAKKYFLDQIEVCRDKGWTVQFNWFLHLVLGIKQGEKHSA
Excerpt: (b) PI3K-γ Selective Assay
A compound's ability in selectively inhibiting PI3K-γ can be assessed using RAW264.7 macrophages. Briefly, serum-starved RAW264.7 cells are stimulated with a known GPCR agonist C5a. See, e.g., Camps et al., Nature Medicine (2005) 11(9):936-943. Cells can be treated with test compounds prior to, simultaneously with, or subsequent to the stimulation by C5a. RAW 264.7 cells respond to the complement component fragment C5a through activation of the C5a receptor, and the C5a receptor activates macrophages and induces cell migration. Test compounds' ability to inhibit C5a-mediated AKT phosphorylation is indicative of selective inhibition of PI3K-γ. Thus, by monitoring the reduction of phospho-AKT in stimulated RAW 264.7 cells (using for example, phospho-AKT antibodies), a compound's potential efficacy in selectively inhibiting PI3Kγ can be assessed.
Certain compounds provided herein were tested in RAW 264.7 cell model using procedures as described above.

δ PI3K = molecular target: T4, δ PI3K (Homo sapiens, UniProt O00329); test: PI3-Kinase Promega ADP-Glo Max assay, δ isoform; format: biochemical; settings: 20 nM kinase, 3 mM ATP, 500 uM diC8-PtdInsP
T4 construct: purchased Millipore
T4 sequence (O00329 whole entry, canonical isoform): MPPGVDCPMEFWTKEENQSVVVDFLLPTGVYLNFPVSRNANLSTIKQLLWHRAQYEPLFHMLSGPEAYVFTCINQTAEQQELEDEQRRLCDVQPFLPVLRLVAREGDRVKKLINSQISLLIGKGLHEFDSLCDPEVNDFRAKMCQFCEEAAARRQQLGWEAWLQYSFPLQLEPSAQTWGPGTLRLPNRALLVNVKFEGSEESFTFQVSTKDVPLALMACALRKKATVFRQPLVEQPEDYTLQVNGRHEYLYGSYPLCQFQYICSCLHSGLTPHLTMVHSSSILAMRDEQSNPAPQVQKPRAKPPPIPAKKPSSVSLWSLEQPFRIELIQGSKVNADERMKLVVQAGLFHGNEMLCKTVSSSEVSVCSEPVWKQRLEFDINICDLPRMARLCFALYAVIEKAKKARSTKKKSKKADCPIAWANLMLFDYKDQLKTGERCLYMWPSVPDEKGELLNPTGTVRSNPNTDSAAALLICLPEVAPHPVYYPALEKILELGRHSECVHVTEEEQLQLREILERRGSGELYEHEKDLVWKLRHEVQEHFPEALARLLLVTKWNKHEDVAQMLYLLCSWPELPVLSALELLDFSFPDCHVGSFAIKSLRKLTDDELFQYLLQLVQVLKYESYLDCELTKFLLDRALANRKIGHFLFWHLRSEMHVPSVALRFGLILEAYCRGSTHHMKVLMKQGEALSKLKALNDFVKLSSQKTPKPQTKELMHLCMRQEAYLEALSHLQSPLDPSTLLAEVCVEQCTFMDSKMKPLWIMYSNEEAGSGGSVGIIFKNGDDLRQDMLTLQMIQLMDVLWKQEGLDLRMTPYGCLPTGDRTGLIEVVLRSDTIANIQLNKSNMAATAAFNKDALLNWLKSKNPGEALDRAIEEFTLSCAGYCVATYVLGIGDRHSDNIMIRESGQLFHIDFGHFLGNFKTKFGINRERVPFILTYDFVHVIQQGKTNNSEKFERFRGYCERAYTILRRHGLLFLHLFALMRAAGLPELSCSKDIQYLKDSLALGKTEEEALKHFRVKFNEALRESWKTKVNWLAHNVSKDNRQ
T4 sequence (P27986 whole entry partner, canonical isoform): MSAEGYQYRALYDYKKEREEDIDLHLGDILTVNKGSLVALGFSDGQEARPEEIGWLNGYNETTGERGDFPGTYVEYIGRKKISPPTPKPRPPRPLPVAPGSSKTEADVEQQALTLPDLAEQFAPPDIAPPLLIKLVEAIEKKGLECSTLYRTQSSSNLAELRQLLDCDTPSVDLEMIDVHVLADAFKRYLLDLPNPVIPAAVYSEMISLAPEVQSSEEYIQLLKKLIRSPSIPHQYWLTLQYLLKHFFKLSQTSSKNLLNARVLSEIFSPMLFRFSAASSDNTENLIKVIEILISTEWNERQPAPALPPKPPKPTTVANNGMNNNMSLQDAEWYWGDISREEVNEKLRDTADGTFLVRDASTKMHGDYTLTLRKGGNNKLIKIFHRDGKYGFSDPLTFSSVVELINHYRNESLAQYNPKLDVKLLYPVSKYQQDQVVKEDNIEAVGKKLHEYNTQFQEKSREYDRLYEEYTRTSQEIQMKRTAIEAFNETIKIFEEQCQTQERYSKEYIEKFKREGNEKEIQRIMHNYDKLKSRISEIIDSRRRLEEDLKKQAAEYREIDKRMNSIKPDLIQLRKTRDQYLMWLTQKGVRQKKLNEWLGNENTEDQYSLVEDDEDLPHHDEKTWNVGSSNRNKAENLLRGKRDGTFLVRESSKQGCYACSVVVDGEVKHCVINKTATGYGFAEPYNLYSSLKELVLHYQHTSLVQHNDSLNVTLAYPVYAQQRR
Protocol: as §1, §2, §3, §4

p110 δ = molecular target: T5, p110 δ (Homo sapiens, UniProt O00329); test: PI3K-δ selective cellular assay: phospho-AKT in anti-human IgM stimulated RAJI cells; format: cell-based; settings: serum-starved RAJI cells stimulated with anti-human IgM
T5 construct: endogenous in cells; host or cells: RAJI cells
Excerpt: (a) PI3K-δ Selective Assay
A compound's ability in selectively inhibiting PI3K-δ can be assessed using RAJI cells, i.e., B lymphocyte cells derived from lymphoma patients. Briefly, serum-starved RAJI cells are stimulated with anti-human IgM, thereby causing signaling through the B-cell receptors, as described in, for example, He et al., Leukemia Research (2009) 33: 798-802. B-cell receptor signaling is important for the activation, differentiation, and survival of B cells and certain B-cell derived cancers. Reduction of phospho-AKT is indicative of compounds that can inhibit B-cell proliferation and function in certain diseases. By monitoring the reduction of phospho-AKT in stimulated RAJI cells (using for example, phospho-AKT antibodies), a compound's potential efficacy in selectively inhibiting PI3Kδ can be assessed.
Certain compounds provided herein were tested in RAJI cell model using procedures as described above.

β PI3K = molecular target: T6, β PI3K (Homo sapiens, UniProt P42338); test: PI3-Kinase Promega ADP-Glo Max assay, β isoform; format: biochemical; settings: 40 nM kinase, 3 mM ATP, 500 uM diC8-PtdInsP
T6 construct: purchased Millipore
T6 sequence (P42338 whole entry, canonical isoform): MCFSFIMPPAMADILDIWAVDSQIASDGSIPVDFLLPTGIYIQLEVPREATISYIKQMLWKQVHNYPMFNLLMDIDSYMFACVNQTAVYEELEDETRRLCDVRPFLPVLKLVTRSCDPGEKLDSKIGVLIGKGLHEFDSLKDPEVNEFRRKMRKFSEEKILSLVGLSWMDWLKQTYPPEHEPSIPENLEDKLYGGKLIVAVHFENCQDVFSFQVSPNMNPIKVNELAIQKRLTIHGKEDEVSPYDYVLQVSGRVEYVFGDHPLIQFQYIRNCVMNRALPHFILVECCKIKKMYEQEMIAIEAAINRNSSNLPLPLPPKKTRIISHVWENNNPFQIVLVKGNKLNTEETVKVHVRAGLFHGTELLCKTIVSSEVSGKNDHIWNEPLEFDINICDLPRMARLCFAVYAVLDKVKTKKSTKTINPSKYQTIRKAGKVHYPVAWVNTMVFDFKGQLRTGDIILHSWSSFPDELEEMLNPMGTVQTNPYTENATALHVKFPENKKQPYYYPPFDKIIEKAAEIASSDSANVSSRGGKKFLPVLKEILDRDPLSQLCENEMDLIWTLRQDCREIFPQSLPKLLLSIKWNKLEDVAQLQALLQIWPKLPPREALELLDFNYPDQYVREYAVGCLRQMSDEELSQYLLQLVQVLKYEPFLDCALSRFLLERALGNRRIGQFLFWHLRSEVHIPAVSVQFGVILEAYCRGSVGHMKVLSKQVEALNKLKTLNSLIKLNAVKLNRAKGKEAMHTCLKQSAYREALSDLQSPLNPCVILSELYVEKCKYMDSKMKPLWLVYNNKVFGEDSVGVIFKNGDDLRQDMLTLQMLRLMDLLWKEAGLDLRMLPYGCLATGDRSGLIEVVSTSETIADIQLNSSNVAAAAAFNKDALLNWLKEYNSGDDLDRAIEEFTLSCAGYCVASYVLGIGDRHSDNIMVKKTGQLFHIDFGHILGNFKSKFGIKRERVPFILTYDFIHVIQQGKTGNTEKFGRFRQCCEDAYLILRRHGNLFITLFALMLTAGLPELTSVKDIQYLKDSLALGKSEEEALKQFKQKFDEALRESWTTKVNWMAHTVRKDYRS
T6 sequence (P27986 whole entry partner, canonical isoform): as the sequence (P27986 whole entry partner, canonical isoform) above
Protocol: as §1, §2, §3, §4

BTK or MEK pathway = test: Effect on BTK or MEK pathway

T1 sequence (P48736 whole entry, canonical isoform): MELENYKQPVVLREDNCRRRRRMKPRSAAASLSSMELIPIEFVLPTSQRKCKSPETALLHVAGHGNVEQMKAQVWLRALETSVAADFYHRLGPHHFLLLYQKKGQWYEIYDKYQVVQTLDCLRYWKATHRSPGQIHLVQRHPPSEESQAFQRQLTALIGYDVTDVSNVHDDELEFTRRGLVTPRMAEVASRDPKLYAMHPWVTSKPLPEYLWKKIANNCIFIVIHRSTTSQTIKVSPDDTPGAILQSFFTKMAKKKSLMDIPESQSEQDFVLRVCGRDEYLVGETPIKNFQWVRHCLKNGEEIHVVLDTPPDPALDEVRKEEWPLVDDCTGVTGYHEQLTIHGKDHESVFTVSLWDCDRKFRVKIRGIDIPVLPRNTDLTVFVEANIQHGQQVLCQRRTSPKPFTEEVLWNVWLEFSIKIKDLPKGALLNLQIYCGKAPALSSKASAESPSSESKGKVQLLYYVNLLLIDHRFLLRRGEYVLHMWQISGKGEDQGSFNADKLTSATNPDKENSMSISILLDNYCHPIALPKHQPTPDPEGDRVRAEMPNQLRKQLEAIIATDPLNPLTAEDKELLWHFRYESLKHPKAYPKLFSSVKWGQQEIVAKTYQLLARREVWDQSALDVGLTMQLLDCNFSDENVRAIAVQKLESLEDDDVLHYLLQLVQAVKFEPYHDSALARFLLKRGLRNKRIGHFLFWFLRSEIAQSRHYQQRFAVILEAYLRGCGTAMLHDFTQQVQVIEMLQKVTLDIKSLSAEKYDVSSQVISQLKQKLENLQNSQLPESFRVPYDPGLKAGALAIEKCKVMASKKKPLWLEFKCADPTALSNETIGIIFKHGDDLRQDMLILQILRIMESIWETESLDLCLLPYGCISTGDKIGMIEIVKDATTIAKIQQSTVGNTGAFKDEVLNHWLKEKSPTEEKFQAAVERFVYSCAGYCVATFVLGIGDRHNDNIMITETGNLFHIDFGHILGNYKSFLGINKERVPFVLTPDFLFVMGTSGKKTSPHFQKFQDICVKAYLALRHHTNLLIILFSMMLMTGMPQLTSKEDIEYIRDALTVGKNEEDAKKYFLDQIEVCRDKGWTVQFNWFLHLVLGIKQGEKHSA

IC50 (γ PI3K) [nM]	IC50 (α PI3K) [nM]	IC50 (p110 γ) [nM]	IC50 (δ PI3K) [nM]	IC50 (p110 δ) [nM]	IC50 (β PI3K) [nM]	Structure (SMILES)	Effect on BTK or MEK pathway (BTK or MEK pathway)
100 to 3500	100 to 3500	10 to 100	1 to 10	1 to 10	100 to 3500	C[C@H](Nc1ncnc2[nH]cnc12)c1cc2ccc(F)c(Cl)c2c(=O)n1-c1ccccc1 [96 s]	–
100 to 3500	3500 to 10000	100 to 3500	10 to 100	1 to 10	100 to 3500	CC[C@H](Nc1ncnc2[nH]cnc12)c1cc2cccc(F)c2c(=O)n1-c1ccccc1 [1 s]	–
–	–	–	–	–	–	CCC(Nc1ncnc2[nH]cnc12)c1cc2cccc(F)c2c(=O)n1-c1ccccc1 (stereo not shown) [Compound 1]	does not affect BTK or MEK pathway
